Our source for the IC50 values is patent US9193719B2, “1,2,4-triazol-5-ones and analogs exhibiting anti-cancer and anti-proliferative activities” (Deciphera Pharmaceuticals, LLC, priority 2013, dated 2015).

pIC50: −log10 of the molar value. Bounds are passed on as bounds.

Experiment [1] deals with osteoclast precursors. In words: Osteoclast tartrate-resistant acid phosphatase assay. Type of experiment: cell-based. Conditions: RANKL and M-CSF, 7-14 days, tartrate-resistant acid phosphatase activity. The procedure:
Osteoclast Tartrate-Resistant Acid Phosphatase Assay
A serial dilution of test compound was dispensed into a 384-well black clear bottom plate (Nalge Nunc International, Rochester, N.Y.). Compound was diluted by the addition of DMEM media supplemented with 10% characterized fetal bovine serum (Invitrogen, Carlsbad, Calif.). Diluted compound was transferred to a 384-well black clear bottom plate. Two-thousand five hundred osteoclast precursors (Lonza, Walkersville, Md.) were added per well in growth media containing Receptor Activator of Nuclear Factor Kappa-beta ligand (RANKL) and M-CSF (R&D Systems, Minneapolis, Minn.). Plates were incubated for 7-14 days at 37 degrees Celsius, 5% CO2, and 95% humidity to allow differentiation of osteoclast precursors. At the end of the incubation period, 10 μL of supernatant from each well was transferred to a clear 384-well plate. Tartrate-resistant acid phosphatase activity in the supernatant samples was determined using an acid phosphatase assay kit (Sigma, St. Louis, Mo.). Absorbance was measured at 550 nm using a plate reader. Data was analyzed using Prism software (Graphpad, San Diego, Calif.) to calculate IC50 values.

Experiment [2] concerns the target T1, unphosphorylated PDGFRβ kinase (uPDGFRβ, Seq. ID No. 3) (Homo sapiens, UniProt P09619).
T1 construct: purchased DeCode
In words: uPDGFRβ kinase enzymatic assay (pyruvate kinase/lactate dehydrogenase coupled). Type of experiment: biochemical. Conditions: ATP 500 μM, rate 1.5 to 2.5 h. The procedure: Unphosphorylated PDGFRβ (uPDGFRβ) Kinase (Seq. ID No. 3) Assay
Activity of unphosphorylated PDGFRβ kinase (uPDGFRβ, Seq. ID No. 3) was determined by following the production of ADP from the kinase reaction with ATP and poly E4Y as substrates through coupling with the pyruvate kinase/lactate dehydrogenase system (e.g., Schindler et al. Science (2000) 289: 1938-1942). In this assay, the oxidation of NADH (thus the decrease at A340 nm) was continuously monitored spectrophometrically. The reaction mixture (100 μL) contained PDGFRβ (DeCode, 15.7 nM), polyE4Y (2.5 mg/mL), MgCl2 (10 mM), pyruvate kinase (4 units), lactate dehydrogenase (0.7 units), phosphoenol pyruvate (1 mM) and NADH (0.28 mM) and ATP (500 μM) in a 90 mM Tris buffer containing 0.2% octyl-glucoside and 1% DMSO, at pH 7.5. The inhibition reaction was started by mixing serial diluted test compound with the above reaction mixture. The absorption at 340 nm was monitored continuously for 4 h at 30° C. on a Polarstar Optima or Synergy 2 plate reader. The reaction rate was calculated using the 1.5 to 2.5 h time frame. Percent inhibition was obtained by comparison of reaction rate with that of a control (i.e. with no test compound). IC50 values were calculated from a series of percent inhibition values determined at a range of inhibitor concentrations using software routines as implemented in the GraphPad Prism software package.

For experiment [3], the target named is T2, unphosphorylated c-FMS kinase (uFMS, Seq. ID no. 1) (Homo sapiens, UniProt P07333).
T2 construct: purchased Millipore
T2 sequence (P07333 538-972): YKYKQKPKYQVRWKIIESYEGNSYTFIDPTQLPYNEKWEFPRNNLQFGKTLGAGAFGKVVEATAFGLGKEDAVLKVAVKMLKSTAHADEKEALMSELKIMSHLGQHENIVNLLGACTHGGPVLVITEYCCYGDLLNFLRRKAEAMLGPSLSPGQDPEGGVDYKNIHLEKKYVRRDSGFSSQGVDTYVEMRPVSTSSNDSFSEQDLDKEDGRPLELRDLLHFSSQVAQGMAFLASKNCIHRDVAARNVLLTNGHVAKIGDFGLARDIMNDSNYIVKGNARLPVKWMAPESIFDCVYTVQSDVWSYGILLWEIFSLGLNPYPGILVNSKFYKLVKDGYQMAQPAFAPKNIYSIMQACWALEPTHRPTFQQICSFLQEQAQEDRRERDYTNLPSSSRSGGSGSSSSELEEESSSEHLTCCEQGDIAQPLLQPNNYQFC
In words: uFMS kinase enzymatic assay (pyruvate kinase/lactate dehydrogenase coupled). Type of experiment: biochemical. Conditions: ATP 500 μM, rate 3 to 4 h. As to the method: uFMS Kinase (Seq. ID No. 1) Assay
Activity of unphosphorylated c-FMS kinase (uFMS, Seq. ID no. 1) was determined by following the production of ADP from the FMS kinase reaction with ATP and poly E4Y as substrates through coupling with the pyruvate kinase/lactate dehydrogenase system (e.g., Schindler et al. Science (2000) 289: 1938-1942). In this assay, the oxidation of NADH (thus the decrease at A340 nm) was continuously monitored spectrophometrically. The reaction mixture (100 μL) contained FMS (purchased from Millipore) (10 nM), polyE4Y (1 mg/mL), MgCl2 (10 mM), pyruvate kinase (4 units), lactate dehydrogenase (0.7 units), phosphoenol pyruvate (1 mM), NADH (0.28 mM) and ATP (500 μM) in 90 mM Tris buffer containing 0.2% octyl-glucoside and 1% DMSO, pH 7.5. The inhibition reaction was started by mixing serial diluted test compound with the above reaction mixture. The absorption at 340 nm was monitored continuously for 4 hours at 30° C. on Synergy 2 plate reader. The reaction rate was calculated using the 3 to 4 h time frame. Percent inhibition was obtained by comparison of reaction rate with that of a control (i.e. in the absence of test compound). IC50 values were calculated from a series of percent inhibition values determined at a range of inhibitor concentrations using software routines as implemented in the GraphPad Prism software package.

Experiment [4] relates to M-NFS-60 cells. In words: M-NFS-60 cell proliferation assay (resazurin). Type of experiment: cell-based. The following applies: 67 h incubation. The procedure:
M-NFS-60 cells (catalog #CRL-1838) were obtained from the American Type Culture Collection (ATCC, Manassas, Va.). Briefly, cells were grown in suspension in RPMI 1640 medium supplemented with 10% characterized fetal bovine serum (Invitrogen, Carlsbad, Calif.), 0.05 mM 2-mercaptoethanol, and 20 ng/mL mouse recombinant macrophage colony stimulating factor (M-CSF) at 37° C., 5% CO2, and 95% humidity. Cells were allowed to expand until reaching saturation at which point they were subcultured or harvested for assay use.
M-NFS-60 Cell Proliferation Assay
A serial dilution of test compound was dispensed into a 384-well black clear bottom plate (Corning, Corning, N.Y.). Two thousand five hundred cells were added per well in 50 μL complete growth medium. Plates were incubated for 67 h at 37° C., 5% CO2, and 95% humidity. At the end of the incubation period 10 μL of a 440 μM solution of resazurin (Sigma, St. Louis, Mo.) in PBS was added to each well and incubated for an additional 5 h at 37° C., 5% CO2, and 95% humidity. Plates were read on a Synergy2 reader (Biotek, Winooski, Vt.) using an excitation of 540 nm and an emission of 600 nm. IC50 values were calculated from a series of percent inhibition values determined at a range of inhibitor concentrations using software routines as implemented in the GraphPad Prism software package.

Experiment [5] has as its target T3, unphosphorylated c-KIT kinase (uKIT, Seq. ID no. 2) (Homo sapiens, UniProt P10721).
T3 construct: uKit with N-terminal GST fusion used for screening
Description: uKit kinase enzymatic assay (pyruvate kinase/lactate dehydrogenase coupled). Type of experiment: biochemical. Conditions: ATP 2000 μM, rate 3 to 4 h. As to the method: uKit Kinase (Seq. ID No. 2) Assay
Activity of unphosphorylated c-KIT kinase (uKIT, Seq. ID no. 2) was determined by following the production of ADP from the KIT kinase reaction with ATP and poly E4Y as substrates through coupling with the pyruvate kinase/lactate dehydrogenase system (e.g., Schindler et al. Science (2000) 289: 1938-1942). In this assay, the oxidation of NADH (thus the decrease at A340 nm) was continuously monitored spectrophometrically. The reaction mixture (100 μl) contained unphosphorylated KIT (12 nM), polyE4Y (1 mg/mL), MgCl2 (10 mM), pyruvate kinase (4 units), lactate dehydrogenase (0.7 units), phosphoenol pyruvate (1 mM), and NADH (0.28 mM) and ATP (2000 μM) in 90 mM Tris buffer containing 0.2% octyl-glucoside and 1% DMSO, pH 7.5. The inhibition reaction was started by mixing serial diluted test compound with the above reaction mixture. The absorption at 340 nm was monitored continuously for 4 hours at 30° C. on Synergy 2 plate reader (BioTech). Reaction rates around 3 to 4 h time frame were used to calculate % inhibitions, from which IC50 values were generated.

T3 sequence (P10721 with tags, fused parts or gaps): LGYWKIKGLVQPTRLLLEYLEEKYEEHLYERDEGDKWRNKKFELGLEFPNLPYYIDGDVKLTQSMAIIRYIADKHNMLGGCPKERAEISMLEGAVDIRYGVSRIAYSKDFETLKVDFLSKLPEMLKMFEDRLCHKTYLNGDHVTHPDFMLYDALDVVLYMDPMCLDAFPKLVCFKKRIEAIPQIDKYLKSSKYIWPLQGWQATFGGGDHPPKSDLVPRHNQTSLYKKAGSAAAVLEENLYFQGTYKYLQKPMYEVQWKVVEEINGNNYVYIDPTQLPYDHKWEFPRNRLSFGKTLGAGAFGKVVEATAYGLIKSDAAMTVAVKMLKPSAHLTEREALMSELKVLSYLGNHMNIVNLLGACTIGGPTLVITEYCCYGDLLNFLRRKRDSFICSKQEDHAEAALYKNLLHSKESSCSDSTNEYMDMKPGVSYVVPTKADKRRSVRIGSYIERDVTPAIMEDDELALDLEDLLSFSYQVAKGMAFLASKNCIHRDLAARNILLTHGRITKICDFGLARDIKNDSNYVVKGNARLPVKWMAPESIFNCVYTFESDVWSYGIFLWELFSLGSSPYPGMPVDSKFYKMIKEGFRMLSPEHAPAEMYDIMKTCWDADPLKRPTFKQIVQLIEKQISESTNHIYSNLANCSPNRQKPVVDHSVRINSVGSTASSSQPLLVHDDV
T1 sequence (P09619 557-1106): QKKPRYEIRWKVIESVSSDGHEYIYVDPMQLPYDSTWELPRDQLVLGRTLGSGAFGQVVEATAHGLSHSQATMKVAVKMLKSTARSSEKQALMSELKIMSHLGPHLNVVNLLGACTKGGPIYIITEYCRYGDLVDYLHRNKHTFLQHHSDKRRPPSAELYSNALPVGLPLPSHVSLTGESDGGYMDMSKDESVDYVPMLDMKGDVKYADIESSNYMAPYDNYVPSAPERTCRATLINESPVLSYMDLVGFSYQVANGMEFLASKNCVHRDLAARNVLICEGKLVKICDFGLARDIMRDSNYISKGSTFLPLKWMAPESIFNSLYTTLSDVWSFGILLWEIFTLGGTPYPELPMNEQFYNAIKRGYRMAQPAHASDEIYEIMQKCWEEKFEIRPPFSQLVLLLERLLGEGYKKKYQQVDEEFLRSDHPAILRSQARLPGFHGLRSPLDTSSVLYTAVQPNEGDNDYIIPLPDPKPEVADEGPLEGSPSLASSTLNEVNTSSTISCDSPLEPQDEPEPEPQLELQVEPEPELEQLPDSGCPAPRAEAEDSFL

As to `Cc1nc(-n2nc(C(C)(C)C)[nH]c2=O)ccc1Oc1ccnc(-c2cn[nH]c2)c1` [Example 24, 1-(5-((2-(1H-pyrazol-4-yl)pyridin-4-yl)oxy)-6-methylpyridin-2-yl)-3-(tert-butyl)-1H-1,2,4-triazol-5(4H)-one], the pIC50 in experiment [1] was 6.00 to 7.00; in experiment [2], less than 6.00; in experiment [3] it was 6.00 to 7.00; in experiment [4] it was 6.00 to 7.00; in experiment [5] it was less than 6.00.

Turning to `CNC(=O)c1cc(Oc2ccc(-n3nc(C(C)(C)C)[nH]c3=O)nc2)ccn1` [Example 26, 4-((6-(3-(tert-butyl)-5-oxo-4,5-dihydro-1H-1,2,4-triazol-1-yl)pyridin-3-yl)oxy)-N-methylpicolinamide], the pIC50 is 6.00 to 7.00 in experiment [1]; less than 6.00 in experiment [2]; 7.00 to 8.00 in experiment [3]; less than 6.00 in experiment [4]; less than 6.00 in experiment [5].

Consider `Cc1nc(-n2nc(-c3ccc(F)cc3)[nH]c2=O)ccc1Oc1ccnc(-c2cnn(C)c2)c1` [Example 28, 3-(4-fluorophenyl)-1-(6-methyl-5-((2-(1-methyl-1H-pyrazol-4-yl)pyridin-4-yl)oxy)pyridin-2-yl)-1H-1,2,4-triazol-5(4H)-one], for which the pIC50 was 7.00 to 8.00 in experiment [1]; less than 6.00 in experiment [2]; no less than 8.00 in experiment [3]; 7.00 to 8.00 in experiment [4]; 7.00 to 8.00 in experiment [5].

Regarding `Cc1cn(-c2cc(Oc3ccc(-n4nc(-c5ccc(F)cc5)[nH]c4=O)nc3C)ccn2)cn1` [Example 29, 3-(4-fluorophenyl)-1-(6-methyl-5-((2-(4-methyl-1H-imidazol-1-yl)pyridin-4-yl)oxy)pyridin-2-yl)-1H-1,2,4-triazol-5(4H)-one], the pIC50 in experiment [1] is 6.00 to 7.00; in experiment [2], less than 6.00; in experiment [3], 7.00 to 8.00; in experiment [4], 6.00 to 7.00; in experiment [5], 6.00 to 7.00.

As to `Cc1nc(-n2nc(-c3ccc(F)cc3)[nH]c2=O)ccc1Oc1ccnc(NC(=O)C2CC2)c1` [Example 32, N-(4-((6-(3-(4-fluorophenyl)-5-oxo-4,5-dihydro-1H-1,2,4-triazol-1-yl)-2-methylpyridin-3-yl)oxy)pyridin-2-yl)cyclopropanecarboxamide], the pIC50 is 6.00 to 7.00 in experiment [1]; 6.00 to 7.00 in experiment [2]; 7.00 to 8.00 in experiment [3]; 6.00 to 7.00 in experiment [4]; 7.00 to 8.00 in experiment [5].

Consider `Cc1nc(-n2nc(C3CCCC3)[nH]c2=O)ccc1Oc1ccnc(-c2cnn(C)c2)c1` [Example 34, 3-cyclopentyl-1-(6-methyl-5-((2-(1-methyl-1H-pyrazol-4-yl)pyridin-4-yl)oxy)pyridin-2-yl)-1H-1,2,4-triazol-5(4H)-one], for which the pIC50 was 7.00 to 8.00 in experiment [1]; 7.00 to 8.00 in experiment [2]; no less than 8.00 in experiment [3]; no less than 8.00 in experiment [4]; no less than 8.00 in experiment [5].

On to `Cc1nc(-n2nc(C3CC3)[nH]c2=O)ccc1Oc1ccnc(-c2cnn(C)c2)c1` [Example 35, 3-cyclopropyl-1-(6-methyl-5-((2-(1-methyl-1H-pyrazol-4-yl)pyridin-4-yl)oxy)pyridin-2-yl)-1H-1,2,4-triazol-5(4H)-one], for which the pIC50 in experiment [1] is 6.00 to 7.00; in experiment [2] it was less than 6.00; in experiment [3] it was 6.00 to 7.00; in experiment [4] it was less than 6.00; in experiment [5] it was 6.00 to 7.00.

In the case of `Cc1nc(-n2nc(C(C)(C)C)[nH]c2=O)ccc1Oc1ccnc(-c2ccc(N3CCN(C)CC3)nc2)c1` [Example 40, 3-(tert-butyl)-1-(6-methyl-5-((6′-(4-methylpiperazin-1-yl)-[2,3′-bipyridin]-4-yl)oxy)pyridin-2-yl)-1H-1,2,4-triazol-5(4H)-one], the pIC50 in experiment [1] was 7.00 to 8.00; in experiment [2], less than 6.00; in experiment [3], 7.00 to 8.00; in experiment [4], 7.00 to 8.00; in experiment [5] it was 6.00 to 7.00.

Regarding `Cc1nc(-n2nc(C(C)(C)C)[nH]c2=O)ccc1Oc1ccnc(-c2ccnc(N3CCN(C)CC3)c2)c1` [Example 41, 3-(tert-butyl)-1-(6-methyl-5-((2′-(4-methylpiperazin-1-yl)-[2,4′-bipyridin]-4-yl)oxy)pyridin-2-yl)-1H-1,2,4-triazol-5(4H)-one], the pIC50 in experiment [1] is 6.00 to 7.00; in experiment [2] it was less than 6.00; in experiment [3] it was 6.00 to 7.00; in experiment [4] it was less than 6.00; in experiment [5], less than 6.00.
